This is an account of results in patent US10280170B2, “Substituted 4,5,6,7-tetrahydro-pyrazolo[1,5-a]pyrazine derivatives and 5,6,7,8-tetrahydro-4H-pyrazolo[1,5-a][1,4]diazepine derivatives as Ros1 inhibitors” (Janssen Pharmaceutica NV, priority 2014, dated 2019).

In general, melting point refers to the temperature, or range, at which the solid turns liquid.

Molecules are shown by their SMILES. Where two headings read alike, the source gives them in different places. A value given as a limit tells only on which side of the number the result lay.

For series [1], the target named is Ba/F3 cells containing Ros1 with G2032R mutation (Homo sapiens, UniProt P08922, G2032R, cells depend on it, form not given). Kind of series: Ba/F3-Ros1 cell proliferation assay, G2032R crizotinib-resistance mutant. The series is classed as cell-based, murine. The following applies: without IL-3. How it is done:
Ba/F3-Ros1 Cell Proliferation Assay
This assay was carried out with Ba/F3 cells containing three different versions of Ros1: the wild-type protein, protein with a mutation at the gatekeeper residue (L2026M), and protein with a mutation identified in a tumor from a patient that became resistant to crizotinib (Xalkori®) treatment (G2032R). Compounds were solubilized in 100% DMSO (dimethyl sulfoxide) and sprayed into polystyrene, tissue culture treated 384-well plates. A 50 μl volume of cell culture medium (phenol red free RPMI-1640, 10% FBS (fetal bovine serum), 2 mM L-Glutamine) containing 20000 Ba/F3-Ros1 cells was added to each well and the plates were placed in an incubator at 37° C. and 5% CO2. After 24 hours, 10 μl of Alamar Blue solution (0.5 mM K3Fe(CN)6, 0.5 mM K4Fe(CN)6, 0.15 mM Resazurin and 100 mM Phosphate Buffer) was added to the wells, incubated for 4 hours at 37° C. and 5% CO2 before RFU's (Relative Fluorescence Units) (ex. 540 nm., em. 590 nm.) were measured in a fluorescence plate reader.

Series [2] has as its target T1, Ros1 enzyme (Homo sapiens, UniProt P08922).
T1 construct: 0.5 μg/ml Ros1 enzyme
Kind of series: Ros1 enzymatic assay. The series is classed as biochemical. The following applies: Ros1 enzymatic assay; for IC50: read-out: ROS1 pIC50 (converted). An outline of the steps:
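First, compounds meet Ros1 enzyme mix plus substrate mix containing IRS-Tide and 33P-labelled ATP at 20 μM. Next, incubation lasts 120 minutes at room temperature. Then EDTA stop buffer with streptavidin beads is added for 15 minutes, and bead-bound radioactivity is imaged.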

For series [3], the system named is Ba/F3 cells containing Ros1 wild-type protein + IL-3. Briefly: Ba/F3-Ros1 cell proliferation counter-screen, wild-type protein in the presence of 10 ng/ml murine IL-3. Conditions: Mus musculus, BaF3, 24 h, read-out: BaF3-ROS1 + IL3 pIC50 (converted). The series is classed as cell-based. An outline of the steps:
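Compounds were dispensed from DMSO into plates, and 20000 Ba/F3 cells carrying wild-type Ros1 were added in phenol red-free RPMI-1640 with 10% FBS plus 10 ng/ml murine IL-3. After 24 h at 37 °C, Alamar Blue was added for 4 h and fluorescence recorded.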

In series [4] the target is T2, Ba/F3 cells containing Ros1 wild-type protein (Homo sapiens, UniProt P08922, cells depend on it, form not given).
T2 construct: The background only speaks of 'a number of different unrelated proteins' and names SLC34A2-ROS1 for HCC78 cells
T2 sequence (P08922 whole entry, stated change not applied): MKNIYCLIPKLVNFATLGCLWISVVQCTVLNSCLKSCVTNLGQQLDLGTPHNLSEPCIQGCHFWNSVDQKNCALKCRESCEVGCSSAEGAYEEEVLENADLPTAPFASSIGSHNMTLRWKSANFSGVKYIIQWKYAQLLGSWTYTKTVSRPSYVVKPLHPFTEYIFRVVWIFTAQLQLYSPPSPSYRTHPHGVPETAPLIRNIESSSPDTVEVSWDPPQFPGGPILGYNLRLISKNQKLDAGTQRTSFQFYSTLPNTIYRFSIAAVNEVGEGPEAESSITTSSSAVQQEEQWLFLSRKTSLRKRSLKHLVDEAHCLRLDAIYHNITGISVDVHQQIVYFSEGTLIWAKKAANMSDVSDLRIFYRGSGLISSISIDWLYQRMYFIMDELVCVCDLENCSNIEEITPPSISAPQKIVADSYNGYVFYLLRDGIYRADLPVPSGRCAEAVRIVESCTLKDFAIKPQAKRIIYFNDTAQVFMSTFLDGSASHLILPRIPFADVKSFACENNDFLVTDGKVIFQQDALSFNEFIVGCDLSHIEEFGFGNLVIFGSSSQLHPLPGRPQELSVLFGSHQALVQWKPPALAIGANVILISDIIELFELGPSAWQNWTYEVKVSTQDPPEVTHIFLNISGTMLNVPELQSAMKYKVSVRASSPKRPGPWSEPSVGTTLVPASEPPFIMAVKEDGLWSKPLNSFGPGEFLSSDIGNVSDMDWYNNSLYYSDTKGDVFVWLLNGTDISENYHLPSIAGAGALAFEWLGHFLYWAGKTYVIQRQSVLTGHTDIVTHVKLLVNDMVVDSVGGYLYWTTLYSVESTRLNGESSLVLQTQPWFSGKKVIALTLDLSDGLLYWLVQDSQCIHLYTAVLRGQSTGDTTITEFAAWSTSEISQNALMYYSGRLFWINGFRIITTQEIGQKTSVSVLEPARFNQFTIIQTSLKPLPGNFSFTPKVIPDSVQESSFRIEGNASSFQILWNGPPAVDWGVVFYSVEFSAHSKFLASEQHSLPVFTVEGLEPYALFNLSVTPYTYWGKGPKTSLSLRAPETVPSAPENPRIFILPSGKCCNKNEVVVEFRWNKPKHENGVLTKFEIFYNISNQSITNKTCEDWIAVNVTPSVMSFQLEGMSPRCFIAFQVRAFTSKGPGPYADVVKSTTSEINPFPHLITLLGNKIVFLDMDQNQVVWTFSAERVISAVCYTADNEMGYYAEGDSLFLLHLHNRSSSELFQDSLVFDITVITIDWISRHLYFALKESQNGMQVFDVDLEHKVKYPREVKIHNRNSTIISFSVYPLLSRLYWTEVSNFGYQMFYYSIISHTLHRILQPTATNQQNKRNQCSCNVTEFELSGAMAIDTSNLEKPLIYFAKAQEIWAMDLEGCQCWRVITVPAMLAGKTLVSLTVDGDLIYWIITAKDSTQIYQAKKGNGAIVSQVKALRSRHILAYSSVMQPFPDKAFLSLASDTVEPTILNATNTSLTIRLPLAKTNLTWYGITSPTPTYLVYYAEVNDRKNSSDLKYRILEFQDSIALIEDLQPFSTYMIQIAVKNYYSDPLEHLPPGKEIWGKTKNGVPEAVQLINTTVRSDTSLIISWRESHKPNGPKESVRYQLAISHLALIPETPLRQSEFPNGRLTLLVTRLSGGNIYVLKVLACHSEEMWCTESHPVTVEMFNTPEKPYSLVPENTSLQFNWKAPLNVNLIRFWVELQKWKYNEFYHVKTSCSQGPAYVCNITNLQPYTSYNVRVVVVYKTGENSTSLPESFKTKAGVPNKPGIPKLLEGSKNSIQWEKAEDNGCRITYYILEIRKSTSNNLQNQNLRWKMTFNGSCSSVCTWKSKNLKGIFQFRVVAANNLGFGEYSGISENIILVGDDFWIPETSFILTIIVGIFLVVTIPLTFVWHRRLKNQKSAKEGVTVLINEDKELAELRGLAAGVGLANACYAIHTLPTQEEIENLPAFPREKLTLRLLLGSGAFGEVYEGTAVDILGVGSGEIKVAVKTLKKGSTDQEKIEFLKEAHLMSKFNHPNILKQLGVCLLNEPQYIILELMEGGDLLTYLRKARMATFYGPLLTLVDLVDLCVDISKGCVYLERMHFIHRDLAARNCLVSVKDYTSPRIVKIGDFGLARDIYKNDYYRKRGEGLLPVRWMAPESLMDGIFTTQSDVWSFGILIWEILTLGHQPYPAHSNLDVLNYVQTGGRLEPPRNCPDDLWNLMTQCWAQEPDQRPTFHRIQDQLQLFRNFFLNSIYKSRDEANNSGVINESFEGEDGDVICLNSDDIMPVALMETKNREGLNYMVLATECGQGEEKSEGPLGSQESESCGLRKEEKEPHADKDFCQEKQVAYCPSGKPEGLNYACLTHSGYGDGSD
Briefly: Ba/F3-Ros1 cell proliferation assay, wild-type Ros1. The series is classed as cell-based, murine. The following applies: without IL-3. An outline of the steps: (§1)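 Alamar Blue read-out (resazurin, ex. 540 nm, em. 590 nm, 4 h at 37 °C) after 24 h compound exposure of 20000 Ba/F3-Ros1 cells per well. Cells carry WT, gatekeeper L2026M or crizotinib-resistant G2032R Ros1; medium RPMI-1640, 10% FBS, 2 mM L-Glutamine.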

The subject of series [5] is HCC78 non-small cell lung cancer cells. Kind of series: HCC78 cell proliferation assay. The series is classed as cell-based. Conditions: for EC50: Homo sapiens, HCC78, 96 h, read-out: HCC-78 PROL pEC50 (converted). In short, it runs like this: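 HCC78 NSCLC cells (~1000/well) in RPMI-1640 with 10% FBS were treated 24 h after seeding and exposed to compound for 4 days at 37 °C. Viability was read by MTT, with absorbance at 538 nm after DMSO/glycine solubilization.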

Series [6] deals with Ba/F3 cells containing Ros1 with a mutation at the gatekeeper residue (L2026M) (Homo sapiens, UniProt P08922, L2026M, cells depend on it, form not given). Kind of series: Ba/F3-Ros1 cell proliferation assay, L2026M gatekeeper mutant. The series is classed as cell-based, murine. The following applies: without IL-3. An outline of the steps: as §1
Ba/F3 cells containing Ros1 with a mutation at the gatekeeper residue (L2026M), sequence (P08922 whole entry L2026M, form open): as the sequence (P08922 whole entry, stated change not applied) above, with L2026M counted along it
Setting [7] is: counter-screen, wild-type, 10 ng/ml murine IL-3.

T1 sequence (P08922 28-2347): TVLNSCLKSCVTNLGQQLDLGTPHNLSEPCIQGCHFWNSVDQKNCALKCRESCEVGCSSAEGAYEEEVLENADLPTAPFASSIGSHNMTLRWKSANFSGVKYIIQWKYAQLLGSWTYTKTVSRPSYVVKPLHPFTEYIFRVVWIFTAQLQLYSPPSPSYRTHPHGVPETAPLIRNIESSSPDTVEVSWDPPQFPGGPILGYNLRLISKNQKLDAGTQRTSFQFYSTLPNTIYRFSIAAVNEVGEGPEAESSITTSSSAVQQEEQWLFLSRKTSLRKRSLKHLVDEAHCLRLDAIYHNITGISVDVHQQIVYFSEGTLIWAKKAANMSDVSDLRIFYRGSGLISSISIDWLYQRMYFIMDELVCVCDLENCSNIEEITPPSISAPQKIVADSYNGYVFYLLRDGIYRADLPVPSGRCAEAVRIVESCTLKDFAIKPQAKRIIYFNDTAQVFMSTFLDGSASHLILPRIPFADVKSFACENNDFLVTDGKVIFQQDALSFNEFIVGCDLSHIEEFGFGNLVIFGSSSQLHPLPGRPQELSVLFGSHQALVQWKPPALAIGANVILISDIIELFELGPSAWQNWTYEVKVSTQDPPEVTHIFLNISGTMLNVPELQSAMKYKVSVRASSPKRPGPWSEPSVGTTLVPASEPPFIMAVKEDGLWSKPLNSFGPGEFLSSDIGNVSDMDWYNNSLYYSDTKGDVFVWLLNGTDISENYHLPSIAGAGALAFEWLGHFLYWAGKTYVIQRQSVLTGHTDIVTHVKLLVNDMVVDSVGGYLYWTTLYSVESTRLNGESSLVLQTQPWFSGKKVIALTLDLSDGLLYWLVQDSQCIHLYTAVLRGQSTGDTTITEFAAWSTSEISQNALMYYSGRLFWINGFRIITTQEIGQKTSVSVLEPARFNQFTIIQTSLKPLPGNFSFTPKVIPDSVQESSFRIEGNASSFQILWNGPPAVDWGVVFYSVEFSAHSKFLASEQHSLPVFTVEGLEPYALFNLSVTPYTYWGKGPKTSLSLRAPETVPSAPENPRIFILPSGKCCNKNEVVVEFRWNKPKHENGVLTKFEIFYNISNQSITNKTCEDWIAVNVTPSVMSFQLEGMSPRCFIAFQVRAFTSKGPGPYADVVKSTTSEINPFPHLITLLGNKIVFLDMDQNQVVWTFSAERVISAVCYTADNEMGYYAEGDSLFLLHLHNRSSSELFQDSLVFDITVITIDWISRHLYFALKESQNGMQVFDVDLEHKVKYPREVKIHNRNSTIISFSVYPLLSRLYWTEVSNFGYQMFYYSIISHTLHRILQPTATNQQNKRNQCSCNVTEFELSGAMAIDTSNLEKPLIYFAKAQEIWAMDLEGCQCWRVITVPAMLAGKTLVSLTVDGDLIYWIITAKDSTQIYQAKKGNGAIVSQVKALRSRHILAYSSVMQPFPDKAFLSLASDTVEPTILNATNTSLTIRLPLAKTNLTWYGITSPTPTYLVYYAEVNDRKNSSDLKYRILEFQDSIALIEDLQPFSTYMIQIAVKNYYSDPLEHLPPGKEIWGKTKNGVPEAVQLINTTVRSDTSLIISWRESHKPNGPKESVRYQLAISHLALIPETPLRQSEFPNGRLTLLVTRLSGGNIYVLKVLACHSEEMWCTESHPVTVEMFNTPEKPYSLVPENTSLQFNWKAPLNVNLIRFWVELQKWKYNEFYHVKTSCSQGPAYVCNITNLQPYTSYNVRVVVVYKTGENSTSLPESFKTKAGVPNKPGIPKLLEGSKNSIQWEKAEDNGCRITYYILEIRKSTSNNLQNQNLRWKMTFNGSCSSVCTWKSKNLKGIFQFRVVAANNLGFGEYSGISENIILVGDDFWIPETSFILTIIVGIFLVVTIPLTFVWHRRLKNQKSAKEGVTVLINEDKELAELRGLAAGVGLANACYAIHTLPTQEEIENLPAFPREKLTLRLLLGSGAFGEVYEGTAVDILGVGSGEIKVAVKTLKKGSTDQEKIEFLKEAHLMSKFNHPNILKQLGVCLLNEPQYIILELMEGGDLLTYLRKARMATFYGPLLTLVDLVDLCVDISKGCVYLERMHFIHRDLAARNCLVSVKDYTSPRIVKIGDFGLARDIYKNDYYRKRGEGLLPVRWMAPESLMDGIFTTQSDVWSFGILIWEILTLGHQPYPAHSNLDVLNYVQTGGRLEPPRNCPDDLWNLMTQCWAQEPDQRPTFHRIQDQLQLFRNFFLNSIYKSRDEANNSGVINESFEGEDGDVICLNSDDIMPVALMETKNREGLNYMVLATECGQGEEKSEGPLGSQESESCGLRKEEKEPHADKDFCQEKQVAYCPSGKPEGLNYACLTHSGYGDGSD
Ba/F3 cells containing Ros1 with G2032R mutation, sequence (P08922 whole entry G2032R, form open): as the sequence (P08922 whole entry, stated change not applied) above, with G2032R counted along it

As for `CC(C)c1ccc(COc2ccc(-c3c(-c4ccncc4)nn4c3C(=O)N(CC(C)(C)O)CC4)cc2)cc1` [Compound 51], the melting point came to 211 °C. The “Ba/3 Ros1 G2032R (-IL-3) pIC50” value in series [1] was 6.6. Further, the IC50 in series [2] is 79.4 nM. Also, in series [3], the CC50 is over 10 µM. Moreover, the “BaF3-ROS1-IL3 pIC50” value in series [4] is 7.2. In addition, the EC50 in series [5] is 100 nM. In series [6], the “Ba/F3 Ros1 L2026M (-IL-3) pIC50” value was 7.3.
Turning to `CC(C)c1ccc(COc2ccc(-c3c(-c4ccncc4)nn4c3C(=O)N(CCO)CC4)c(C#N)c2)cc1` [Compound 28], the melting point was found to be 185 °C. In addition, in series [1], the “Ba/3 Ros1 G2032R (-IL-3) pIC50” value is on record as 7.3. For the same compound, in series [2], the IC50 is 15.8 nM. Further, in series [3], the CC50 was over 10 µM. In addition, the “BaF3-ROS1-IL3 pIC50” value in series [4] is reported as 7.8. Besides, the EC50 in series [5] was 63.1 nM. Also, the “Ba/F3 Ros1 L2026M (-IL-3) pIC50” value in series [6] was determined as 7.7.
Turning to `CC(C)c1ccc(C2CCc3cc(-c4c(-c5ccncc5)nn5c4C(=O)N(CCO)CC5)ccc3O2)cc1` (stereo not shown) [Compound 200], the “Ba/3 Ros1 G2032R (-IL-3) pIC50” value in series [1] was found to be 6.6. Besides, the IC50 in series [2] was 126 nM. In series [3], the CC50 was over 10 µM. Moreover, in series [4], the “BaF3-ROS1-IL3 pIC50” value is listed as 7.3. Also, in series [5], the EC50 was 316 nM. The “Ba/F3 Ros1 L2026M (-IL-3) pIC50” value in series [6] worked out at 6.3.
In the case of `CC(C)c1ccc(COc2ccc(-c3c(-c4ccncc4)nn4c3C(=O)N(CCO)CC4)c(F)c2)cc1` [Compound 21], the melting point came out at 141 °C. Further, the “Ba/3 Ros1 G2032R (-IL-3) pIC50” value in series [1] was 7.4. Also, the IC50 in series [2] was 10 nM. Besides, the CC50 in series [3] is over 10 µM. Moreover, the “BaF3-ROS1-IL3 pIC50” value in series [4] amounted to 7.8. The EC50 in series [5] is 39.8 nM. Besides, the “Ba/F3 Ros1 L2026M (-IL-3) pIC50” value in series [6] came to 7.6.
Compound `CC(C)c1ccc(COc2ccc(-c3c(-c4ccncc4)nn4c3C(=O)NCC4)cc2F)cc1` [Compound 18] came in with a melting point of 241 °C. The “Ba/3 Ros1 G2032R (-IL-3) pIC50” value in series [1] is on record as 7.3. Further, in series [2], the IC50 was 10 nM. For the same compound, the CC50 in series [3] was over 10 µM. In addition, the “BaF3-ROS1-IL3 pIC50” value in series [4] was 7.7. The EC50 in series [5] is 39.8 nM. The “Ba/F3 Ros1 L2026M (-IL-3) pIC50” value in series [6] turned out to be 7.7.
For `COCCc1cc(COc2ccc(-c3c(-c4ccncc4)nn4c3C(=O)NCC4)cc2)ccc1C(C)C` [Compound 84], the melting point came out at 208 °C. In addition, the “Ba/3 Ros1 G2032R (-IL-3) pIC50” value in series [1] was 7.0. The IC50 in series [2] is 25.1 nM. Besides, the CC50 in series [3] is over 10 µM. Also, the “BaF3-ROS1-IL3 pIC50” value in series [4] is on record as 7.7. Further, the EC50 in series [5] was 31.6 nM. For the same compound, the “Ba/F3 Ros1 L2026M (-IL-3) pIC50” value in series [6] was found to be 7.2.
For `CC(C)c1cc(F)c(COc2ccc(-c3c(-c4ccncc4)nn4c3C(=O)N(CCO)CC4)cc2)cc1F` [Compound 97], the melting point worked out at 147 °C. For the same compound, in series [1], the “Ba/3 Ros1 G2032R (-IL-3) pIC50” value is recorded as under 5. Besides, the IC50 in series [2] was 158 nM. In addition, in series [3], the CC50 is over 10 µM. Also, in series [4], the “BaF3-ROS1-IL3 pIC50” value was determined as 6.9. For the same compound, the EC50 in series [5] was 3160 nM. Further, in series [6], the “Ba/F3 Ros1 L2026M (-IL-3) pIC50” value is reported as 6.3.
`CC(C)c1ccc(COc2ccc(-c3c(-c4ccncc4)nn4c3C(=O)N(CC(O)CO)CC4)cc2)cc1` (stereo not shown) [Compound 44] showed a melting point of 192 °C. Besides, in series [1], the “Ba/3 Ros1 G2032R (-IL-3) pIC50” value stood at 6.8. The IC50 in series [2] was 50.1 nM. Besides, the “BaF3-ROS1-IL3 pIC50” value in series [4] worked out at 7.4. The “HCC-78 PROL pEC50” value in series [5] (HCC78 cells, 4 days, MTT) is listed as 6.6. Moreover, the “Ba/F3 Ros1 L2026M (-IL-3) pIC50” value in series [6] came out at 6.9.
Compound `CC(C)c1ccc(COc2ccc(-c3c(-c4ccncn4)nn4c3C(=O)N(CCO)CC4)cc2)cc1` [Compound 159] came in with a melting point of 160 °C. In addition, in series [1], the “Ba/3 Ros1 G2032R (-IL-3) pIC50” value was 6.4. Further, in series [2], the IC50 was 50.1 nM. Further, the CC50 in series [3] was over 10 µM. In addition, the “BaF3-ROS1-IL3 pIC50” value in series [4] was 7.3. Also, the EC50 in series [5] was 63.1 nM. In addition, the “Ba/F3 Ros1 L2026M (-IL-3) pIC50” value in series [6] worked out at 7.2.
With `CC(O)CN1CCn2nc(-c3ccncc3)c(-c3ccc(OCc4ccc(C(C)C)cc4)cc3)c2C1=O` (stereo not shown) [Compound 47], the “Ba/3 Ros1 G2032R (-IL-3) pIC50” value in series [1] is recorded as 6.9. In addition, the IC50 in series [2] is 50.1 nM. Besides, the CC50 in series [3] (setting [7]) is over 10 µM. Besides, the “BaF3-ROS1-IL3 pIC50” value in series [4] turned out to be 7.3. Moreover, the EC50 in series [5] (HCC78 cells, 4 days, MTT) was 79.4 nM. In addition, in series [6], the “Ba/F3 Ros1 L2026M (-IL-3) pIC50” value worked out at 7.5.
`CC(C)c1ccc(COc2ccc(-c3c(-c4ccncc4)nn4c3C(=O)N(CCO)CC4)cc2F)cc1` [Compound 19] returned a melting point of 172 °C. Moreover, in series [1], the “Ba/3 Ros1 G2032R (-IL-3) pIC50” value is 7.5. In addition, in series [2], the IC50 was 12.6 nM. Also, the CC50 in series [3] was over 10 µM. In addition, in series [4], the “BaF3-ROS1-IL3 pIC50” value was determined as 8.2. In series [5], the EC50 is under 31.6 nM. The “Ba/F3 Ros1 L2026M (-IL-3) pIC50” value in series [6] turned out to be 8.0.
As for `CC(O)CN1CCn2nc(-c3ccncc3)c(-c3ccc(OCc4ccc(C(C)C)cc4)cc3)c2C1=O` (stereo not shown) [Compound 46], the melting point was determined as 177 °C. Further, the “Ba/3 Ros1 G2032R (-IL-3) pIC50” value in series [1] was 6.9. The “ROS1 pIC50” value in series [2] stood at 7.3. Moreover, the “BaF3-ROS1-IL3 pIC50” value in series [4] is 7.5. For the same compound, the “HCC-78 PROL pEC50” value in series [5] (HCC78 cells, 4 days, MTT) worked out at 7.0. Besides, in series [6], the “Ba/F3 Ros1 L2026M (-IL-3) pIC50” value is on record as 7.1.
With `CNC(=O)CN1CCn2nc(-c3ccncc3)c(-c3ccc(OCc4ccc(C(C)C)cc4)cc3)c2C1=O` [Compound 63], the melting point was found to be 161 °C. Also, the “Ba/3 Ros1 G2032R (-IL-3) pIC50” value in series [1] is given as 6.7. Besides, the IC50 in series [2] was 100 nM. Besides, in series [3], the CC50 is over 10 µM. Besides, the “BaF3-ROS1-IL3 pIC50” value in series [4] is 7.1. For the same compound, the EC50 in series [5] is 398 nM. Further, the “Ba/F3 Ros1 L2026M (-IL-3) pIC50” value in series [6] is given as 7.3.
On to `CC(C)c1ccc(COc2ccc(-c3c(-c4ccncc4)nn4c3C(=O)N(CCOCCO)CC4)cc2)cc1` [Compound 53], for which the melting point is 121 °C. Moreover, in series [1], the “Ba/3 Ros1 G2032R (-IL-3) pIC50” value was determined as 7.0. Moreover, the IC50 in series [2] was 39.8 nM. Further, the CC50 in series [3] (setting [7]) was over 10 µM. For the same compound, the “BaF3-ROS1-IL3 pIC50” value in series [4] came to 7.4. Also, the EC50 in series [5] (HCC78 cells, 4 days, MTT) was 100 nM. For the same compound, the “Ba/F3 Ros1 L2026M (-IL-3) pIC50” value in series [6] is reported as 6.9.
